Values quoted from earlier work, collected in patent US6764831B2, “Methods and compositions for pain management” (priority 1998, dated 2004).

Assays:
[1] = test system: ACh level in the extracellular space; details: injection into rats
[2] = test system: cholinesterase (ChE); details: muscle relaxants used with anesthesia
[3] = injected into the brachial artery of humans
[4] = test system: cholinesterase
[5] = test system: extracellular ACh level

SMILES | effect on cholinesterase (ChE) [2] | other results
CCCCCCCNC(=O)Oc1ccc2c(c1)[C@]1(C)CCN(C)[C@@H]1N2C [heptylphysostigmine] | – | ACh level in the extracellular space [1]: elevation
C=CC[N+]1([C@H]2C[C@H]3[C@@H]4CC[C@H]5C[C@H](O)[C@@H](N6CCOCC6)C[C@]5(C)[C@H]4CC[C@]3(C)[C@H]2OC(C)=O)CCCC1 [ROCURONIUM] | no effect | –
C[N+](C)(C)CCOC(=O)CCC(=O)OCC[N+](C)(C)C [Succinylcholine] | no effect | –
CC(=O)O[C@H]1C[C@@H]2CC[C@@H]3[C@H](CC[C@@]4(C)[C@H]3C[C@H]([N+]3(C)CCCCC3)[C@@H]4OC(C)=O)[C@@]2(C)C[C@@H]1N1CCCCC1.[Br-] [NOCURON] | no effect | –
CC(=O)OCC[N+](C)(C)C [ACh, acetylcholine] | – | pain produced on injection [3]: extreme pain was produced
CN(C)C(=O)Oc1cccc([N+](C)(C)C)c1 [neostigmine] | – | cholinesterase inhibition [4]: inhibit; extracellular ACh level [5]: above detection limit
COc1ccc(C[C@@H]2c3cc(OC)c(OC)cc3CC[N@+]2(C)CCC(=O)OCCCCCOC(=O)CC[N@@+]2(C)CCc3cc(OC)c(OC)cc3[C@H]2Cc2ccc(OC)c(OC)c2)cc1OC [NIMBEX] | no effect | –
